Reference: PubChem BioAssay AID602251 (NMMLSC, 2012)
Activity calls are given as the source filed them.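 Rule for the calls: active = fitted concentration giving half of the maximal binding block below 66 µM; inactive = the rest.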

Target: anti-desmoglein 3 scFv antibody binding to human desmoglein 3 (DSG3)
Assay: blockers of pemphigus antibody–desmoglein 3 interaction – biochemical, DSG3-coupled beads, scFv-GFP, flow cytometry, Cherry Pick 1, dose response (AID 602251)
Details: at 66.1 µM (top of the series)

Row | SMILES | binding response, lower = inhibition
1 | COc1cc(OC)cc(N(C(=O)C2COc3ccccc3O2)C(C(=O)NC2CCCCC2)c2ccc(O)cc2)c1 (configuration not stated) | inactive
2 | NC(=O)c1ccc(NC(=O)CSc2nnc(-c3ccc4c(c3)OCO4)o2)cc1 | inactive
